Reference: patent publication US10450297B2, “Sulfonyl amide derivatives for the treatment of abnormal cell growth” (Pfizer, Inc., priority 2007, dated 2019)
Structures can show the parent of a compound that is named as a salt.

Biological target: FAK kinase (catalytic construct FAK(410-689)) (Homo sapiens (Human), UniProt Q05397)
Assay: FAKcd kinase ELISA (inhibition of poly-glu-tyr phosphorylation by FAK(410-689))
Assay type: biochemical
Settings: 50 μM final ATP

Sequence of FAK kinase (catalytic construct FAK(410-689)) (Q05397 410-689): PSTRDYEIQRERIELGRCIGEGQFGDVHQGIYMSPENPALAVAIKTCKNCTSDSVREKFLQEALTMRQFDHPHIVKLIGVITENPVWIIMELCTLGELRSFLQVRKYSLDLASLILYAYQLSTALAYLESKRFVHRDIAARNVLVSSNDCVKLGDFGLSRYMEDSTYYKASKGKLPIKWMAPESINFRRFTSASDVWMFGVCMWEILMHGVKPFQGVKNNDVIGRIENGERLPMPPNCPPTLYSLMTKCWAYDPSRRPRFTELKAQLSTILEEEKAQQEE

IC50 | Compound
< 0.595 nM | CN(c1ncccc1CNc1nc(Nc2ccc(CNCC(C)(C)O)cc2)ncc1C(F)(F)F)S(C)(=O)=O [Compound 413, N-{3-[({2-[(4-{[(2-hydroxy-2-methylpropyl)amino]methyl}phenyl)amino]-5-(trifluoromethyl)pyrimidin-4-yl}amino)methyl]pyridin-2-yl}-N-methylmethanesulfonamide]
< 0.595 nM | CNCc1ccc(Nc2ncc(C(F)(F)F)c(NCc3cccnc3N(C)S(C)(=O)=O)n2)cc1 [Compound 414, N-methyl-N-[3-({[2-({4-[(methylamino)methyl]phenyl}amino)-5-(trifluoromethyl)pyrimidin-4-yl]amino}methyl)pyridin-2-yl]methanesulfonamide]
< 0.595 nM | CNCc1ccc(Nc2ncc(C(F)(F)F)c(NCc3ccccc3N(C)S(C)(=O)=O)n2)cc1 [Compound 415, N-methyl-N-[2-({[2-({4-[(methylamino)methyl]phenyl}amino)-5-(trifluoromethyl)pyrimidin-4-yl]amino}methyl)phenyl]methanesulfonamide]
0.59 nM | CN(c1ncccc1CNc1nc(Nc2ccc(CN)cc2)ncc1C(F)(F)F)S(C)(=O)=O [Example 4, N-(3-((2-(4-(aminomethyl)phenylamino)-5-(trifluoromethyl)pyrimidin-4-ylamino)methyl)pyridin-2-yl)-N-methylmethanesulfonamide]
0.6 nM | CC(=O)NCc1ccc(Nc2ncc(C(F)(F)F)c(NCc3cccnc3N(C)S(C)(=O)=O)n2)cc1 [Example 5, N-(4-(4-((2-(N-methylmethan-5-ylsulfonamido)pyridin-3-yl)methylamino)-5-(trifluoromethyl)pyrimidin-2-ylamino)benzyl)acetamide]
< 0.595 nM | CN(c1ncccc1CNc1nc(Nc2ccc(CO)cc2)ncc1C(F)(F)F)S(C)(=O)=O [Example 6, N-(3-((2-(4-(hydroxymethyl)phenylamino)-5-(trifluoromethyl)pyrimidin-4-ylamino)methyl)pyridin-2-yl)-N-methylmethanesulfonamide]
1.55 nM | CN(c1ncccc1CNc1nc(Nc2ccc(CCl)cc2)ncc1C(F)(F)F)S(C)(=O)=O [Example 7, N-(3-((2-(4-(chloromethyl)phenylamino)-5-(trifluoromethyl)pyrimidin-4-ylamino)methyl)pyridin-2-yl)-N-methylmethanesulfonamide]
< 0.595 nM | CN(c1ncccc1CNc1nc(Nc2ccc(CNC(CO)CO)cc2)ncc1C(F)(F)F)S(C)(=O)=O [Example 8, N-(3-((2-(4-((1,3-dihydroxypropan-2-ylamino)methyl)phenylamino)-5-(trifluoromethyl)pyrimidin-4-ylamino)methyl)pyridin-2-yl)-N-methylmethanesulfonamide]
0.6 nM | CN(c1ncccc1CNc1nc(Nc2cccc(C(=O)OC(C)(C)C)c2)ncc1C(F)(F)F)S(C)(=O)=O [Example 9, tert-butyl 3-({4-[({2-[methyl(methylsulfonyl)amino]pyridin-3-yl}methyl)amino]-5-(trifluoromethyl)pyrimidin-2-yl}amino)benzoate]
0.6 nM | CN(c1ncccc1CNc1nc(Nc2cccc(C(=O)O)c2)ncc1C(F)(F)F)S(C)(=O)=O [Example 10, 3-({4-[({2-[methyl(methylsulfonyl)amino]pyridin-3-yl}methyl)amino]-5-(trifluoromethyl)pyrimidin-2-yl}amino)benzoic acid trifluoroacetic acid salt]
1.86 nM | CN(c1ncccc1CNc1nc(Nc2cccc(C(=O)NC3CC3)c2)ncc1C(F)(F)F)S(C)(=O)=O [Example 11, N-cyclopropyl-3-({4-[({2-[methyl(methylsulfonyl)amino]pyridin-3-yl}methyl)amino]-5-(trifluoromethyl)pyrimidin-2-yl}amino)benzamide]
< 0.595 nM | CN(c1ncccc1CNc1nc(Nc2ccc(C(N)=O)c(F)c2)ncc1C(F)(F)F)S(C)(=O)=O [Example 13, 2-fluoro-4-({4-[({2-[methyl(methylsulfonyl)amino]pyridin-3-yl}methyl)amino]-5-(trifluoromethyl)pyrimidin-2-yl}amino)benzamide formic acid salt]
< 0.595 nM | CN(c1ncccc1CNc1nc(Nc2ccc(C(N)=O)cc2F)ncc1C(F)(F)F)S(C)(=O)=O [Example 14, 3-fluoro-4-({4-[({2-[methyl(methylsulfonyl)amino]pyridin-3-yl}methyl)amino]-5-(trifluoromethyl)pyrimidin-2-yl}amino)benzamide formic acid salt]
